Data as given in patent US20030039657A1, “Inducible vaccines” (priority 1999, published 2003).

System: humoral immune response against hAAT
Assay: Anti-hAAT antibody (humoral immune response) in mouse serum by ELISA after gene-gun DNA inoculation
Format: in vivo, balb/c mice
Procedure: Five to 7-week-old female Balb/c mice were given 4 μg reporter (P4U-hAAT) and 200 ng effector (GS1158) of the mifepristone-inducible plasmid DNA divided into four shots. Mifepristone was given i.p. 20 weeks after DNA administration (Day 140, 142, 144). Blood samples were take from the tail vein at various time points and anti-hAAT levels were determined by ELISA. Values are mean +/−SD for three mice per group. The control is with no drug treatment.
Specific-pathogen-free (5-7 weeks old), female balb/c mice were purchased from Jackson Labs (Bar Harbor, Me.). A biolistic gene gun (Rumsey-Loomis, Ithaca, N.Y.) was used to deliver plasmid DNA into the skin of mouse ears (Williams et al., 1991; Johnston and Tang 1993). Briefly, DNA was precipitated onto gold micro-projectiles (3±1 μm diameter, Metz Metallurgical Corp., South Plainfield, N.J.) at 4 μg DNA/mg gold. Each mouse received four shots of gold-DNA and each shots contains 1 μg reporter (P4U-AAT) and 50 ng effector (GS-1158) plasmid DNA. The drug (RU486, Sigma) was given intraperitoneally on days 1, 3, 5, and also on day 14, 16, in a dose of 500 μg/kg/day in 100 μl sesame oil, after DNA injection. […] The blood samples of the mice was collected from the tail vein at the time point as indicated. The anti-hAAT antibodies in the serum was measured using enzyme-linked immuno enzyme-linked immunosorbent assay (ELISA, Tang et al. 1992). Briefly, ninety six-well plats were coated with 1 μg hAAT per well in 50 μl phosphate buffered saline (PBS) (for overnight at 4° C. and 100 μl blocking buffer (3% bovine serum albumin (3SA) in PBS with 0.05% tween 20) was added and incubated for 2 hrs at room temperature. After 3 times washing with PBS plus 0.05% tween 20, the serum samples (diluted 1:200 in blocking buffer) were added into the well and incubated overnight at 4° C., then further incubated with horseradish peroxidase-conjugated goat anti-mouse immunoglobulin G and M (Jackson ImmunResearch, West Grove, Pa.) for 1 h at room temperature. The plate was washed and developed with TMB buffer solution (Calbiochem). The optical density was read at 450 nm and concentration of the antibodies was determined according to the standard curve.
The mice were given RU486 intraperitoneally in week 7 (Day 50, 52, 54) after the DNA injection in the drug and the Van Gogh (removed the site of the DNA inoculation, ear) groups. The ear cut was performed before administering the drug. The value shown is the mean with standard deviation for experiments on three mice.

In the case of `CC#C[C@]1(O)CC[C@H]2[C@@H]3CCC4=CC(=O)CCC4=C3[C@@H](c3ccc(N(C)C)cc3)C[C@@]21C` [RU486, mifepristone], the “anti-hAAT antibody levels, time of peak” value (FIG. 3, 4 shots of 1 μg P4U-AAT + 50 ng GS-1158, RU486 500 μg/kg/day ip days 1, 3, 5, 14, 16) is reported as “reached peak levels at the third week”, the “anti-hAAT immune response, inducibility by ligand” value (FIG. 4, RU486 on week 3 (day 21, 23, 25) after DNA, 1 μg reporter and 50 ng effector per shot) is reported as “inducible by simply giving the ligand three weeks after the primary injection of the DNA” and the “anti-hAAT immune response, inducibility by ligand” value (FIG. 6, RU486 ip in week 7 (Day 50, 52, 54) after DNA injection) is reported as “inducible 7 weeks after the DNA injection”. The “anti-hAAT immune response after removal of the DNA inoculation site (Van Gogh group)” value (FIG. 6, ear cut before RU486 in week 7) was “the original vaccine site was not required for induction”.
